Measured values published in patent publication US20110118337A1, “Method of Using Compositions Comprising MIR-192 and/or MIR-215 for the Treatment of Cancer” (Merck Sharp & Dohme Corp., priority 2008, published 2011).

Test system: HCT116 DICER^ex5 cells
Assay: Gene expression profiling (Agilent 44K microarray) after transfection of miR-192/miR-215 duplex mimetics
Type: cell-based, human
Conditions: 10 nM, vs mock-transfected
Experimental: Synthetic duplex mimetics of miR-192 and miR-215 (sequences shown in TABLE 1) or a control target Luciferase siRNA (Luc), shown in TABLE 1, were transfected (10 nM final concentration) into HCT116 DICER^ex5, a human colorectal cancer cell line with hypomorphic DICER function (Cummins, J. M., et al., PNAS 103:3687-3692 (2006)). The transfections were carried out using Lipofectamine RNAiMax (Invitrogen) per the manufacturer's instructions. At 10 and 24 hours post-transfection, total RNA was extracted and gene expression profiling was carried out with the Agilent 44K microarray in comparison to RNA isolated from mock-transfected HCT116DICER^ex5 cells. Microarray analysis was carried out as described in Linsley, P. S., et al., Mol Cell Biol 27:2240-2252 (2007). Gene expression data analysis was done either with the Rosetta Resolver gene expression analysis software (Version 7.1 Rosetta Biosoftware).

miR-215: Synthetic duplex mimetic of miR-215, guide AUGACCUAUGAAUUGACAGAC (SEQ ID NO:4), passenger SEQ ID NO:10 (sense CUGUCAAUUCAUAGGUCUUAU; listed as RNA, chemistry not given here; listed as Homo sapiens)
BCL2 transcript fold change (10 hr): −1.09 fold change | BRCA1 transcript fold change (10 hr): −1.04 fold change | CDC7 transcript fold change (10 hr): −1.54 fold change | CDC14A transcript fold change (10 hr): −1.05 fold change | CDC73 transcript fold change (10 hr): −1.04 fold change | CRK transcript fold change (10 hr): −1.43 fold change | CTCF transcript fold change (10 hr): −1.53 fold change | CUL5 transcript fold change (10 hr): −1.25 fold change | DBF4B transcript fold change (10 hr): −1.07 fold change | DEK transcript fold change (10 hr): −1.19 fold change | DLG5 transcript fold change (10 hr): −1.89 fold change | DTL transcript fold change (10 hr): −1.19 fold change | EMP1 transcript fold change (10 hr): 1.11 fold change | ERCC3 transcript fold change (10 hr): −1.25 fold change | EXTL2 transcript fold change (10 hr): −1.32 fold change | FGF2 transcript fold change (10 hr): −1.67 fold change | HOXA10 transcript fold change (10 hr): −1.74 fold change | HRH1 transcript fold change (10 hr): −1.52 fold change | KIF14 transcript fold change (10 hr): 1.01 fold change | KIF23 transcript fold change (10 hr): 1.01 fold change | LMNB2 transcript fold change (10 hr): −1.55 fold change | MACF1 transcript fold change (10 hr): −1.17 fold change | MAD2L transcript fold change (10 hr): −1.31 fold change | MCM3 transcript fold change (10 hr): −1.56 fold change | MCM6 transcript fold change (10 hr): −1.04 fold change | MCM10 transcript fold change (10 hr): −1.97 fold change | MIS12 transcript fold change (10 hr): −1.28 fold change | MKI67 transcript fold change (10 hr): −1.04 fold change | MPHOSPH1 transcript fold change (10 hr): −1.46 fold change | MTSS1 transcript fold change (10 hr): −1.07 fold change | NBN transcript fold change (10 hr): −1.39 fold change | NCAPH transcript fold change (10 hr): −1.02 fold change | NEK1 transcript fold change (10 hr): −1.16 fold change | NFIB transcript fold change (10 hr): −1.38 fold change | NFYA transcript fold change (10 hr): −1.25 fold change | NIN transcript fold change (10 hr): −1.12 fold change | PAFAH1B1 transcript fold change (10 hr): −1.31 fold change | PAPD5 transcript fold change (10 hr): −1.31 fold change | PFTK1 transcript fold change (10 hr): 1.05 fold change | PIM1 transcript fold change (10 hr): −1.13 fold change | PLAU transcript fold change (10 hr): −1.77 fold change | PLS3 transcript fold change (10 hr): −1.56 fold change | POLQ transcript fold change (10 hr): −1.1 fold change | POLS transcript fold change (10 hr): −1.17 fold change | PPP1CA transcript fold change (10 hr): −1.76 fold change | PRPF38A transcript fold change (10 hr): −1.09 fold change | RACGAP1 transcript fold change (10 hr): −1.31 fold change | RAD1 transcript fold change (10 hr): −1.12 fold change | RAD21 transcript fold change (10 hr): −1.32 fold change | RAD51 transcript fold change (10 hr): 1.05 fold change | RAP1GAP transcript fold change (10 hr): −1.21 fold change | RB1 transcript fold change (10 hr): −1.25 fold change | SEPT10 transcript fold change (10 hr): −1.6 fold change | SERTAD2 transcript fold change (10 hr): −1.09 fold change | SH3BP4 transcript fold change (10 hr): −1.38 fold change | SMARCB1 transcript fold change (10 hr): −1.42 fold change | TDG transcript fold change (10 hr): −1.54 fold change | TDP1 transcript fold change (10 hr): −1.5 fold change | TOP1 transcript fold change (10 hr): −1.64 fold change | TUBGCP3 transcript fold change (10 hr): −1.41 fold change | USP1 transcript fold change (10 hr): −1.16 fold change | UVRAG transcript fold change (10 hr): −1.17 fold change | BCL2 transcript fold change (24 hr): −1.59 fold change | BRCA1 transcript fold change (24 hr): −1.43 fold change | CDC7 transcript fold change (24 hr): −2.04 fold change | CDC14A transcript fold change (24 hr): −1.2 fold change | CDC73 transcript fold change (24 hr): −1.1 fold change | CRK transcript fold change (24 hr): −1.52 fold change | CTCF transcript fold change (24 hr): −1.66 fold change | CUL5 transcript fold change (24 hr): −1.37 fold change | DBF4B transcript fold change (24 hr): −1.33 fold change | DEK transcript fold change (24 hr): −1.42 fold change | DLG5 transcript fold change (24 hr): −2.03 fold change | DTL transcript fold change (24 hr): −1.46 fold change | EMP1 transcript fold change (24 hr): 1.04 fold change | ERCC3 transcript fold change (24 hr): −1.36 fold change | EXTL2 transcript fold change (24 hr): −1.59 fold change | FGF2 transcript fold change (24 hr): −2.12 fold change | HOXA10 transcript fold change (24 hr): −2.57 fold change | HRH1 transcript fold change (24 hr): −1.63 fold change | KIF14 transcript fold change (24 hr): −1.53 fold change | KIF23 transcript fold change (24 hr): −1.36 fold change | LMNB2 transcript fold change (24 hr): −1.92 fold change | MACF1 transcript fold change (24 hr): −1.55 fold change | MAD2L transcript fold change (24 hr): −1.84 fold change | MCM3 transcript fold change (24 hr): −1.96 fold change | MCM6 transcript fold change (24 hr): −1.4 fold change | MCM10 transcript fold change (24 hr): −2.67 fold change | MIS12 transcript fold change (24 hr): −1.77 fold change | MKI67 transcript fold change (24 hr): −1.52 fold change | MPHOSPH1 transcript fold change (24 hr): −1.94 fold change | MTSS1 transcript fold change (24 hr): −1.29 fold change | NBN transcript fold change (24 hr): −1.41 fold change | NCAPH transcript fold change (24 hr): −1.32 fold change | NEK1 transcript fold change (24 hr): −1.35 fold change | NFIB transcript fold change (24 hr): −1.91 fold change | NFYA transcript fold change (24 hr): −1.18 fold change | NIN transcript fold change (24 hr): −1.42 fold change | PAFAH1B1 transcript fold change (24 hr): −1.6 fold change | PAPD5 transcript fold change (24 hr): −1.22 fold change | PFTK1 transcript fold change (24 hr): −1.28 fold change | PIM1 transcript fold change (24 hr): −1.65 fold change | PLAU transcript fold change (24 hr): −1.91 fold change | PLS3 transcript fold change (24 hr): −1.84 fold change | POLQ transcript fold change (24 hr): −1.23 fold change | POLS transcript fold change (24 hr): −1.38 fold change | PPP1CA transcript fold change (24 hr): −2.42 fold change | PRPF38A transcript fold change (24 hr): −1.17 fold change | RACGAP1 transcript fold change (24 hr): −1.84 fold change | RAD1 transcript fold change (24 hr): −1.38 fold change | RAD21 transcript fold change (24 hr): −1.52 fold change | RAD51 transcript fold change (24 hr): −1.35 fold change | RAP1GAP transcript fold change (24 hr): −1.35 fold change | RB1 transcript fold change (24 hr): −1.39 fold change | SEPT10 transcript fold change (24 hr): −1.95 fold change | SERTAD2 transcript fold change (24 hr): −1.1 fold change | SH3BP4 transcript fold change (24 hr): −1.67 fold change | SMARCB1 transcript fold change (24 hr): −1.42 fold change | TDG transcript fold change (24 hr): −1.55 fold change | TDP1 transcript fold change (24 hr): −1.8 fold change | TOP1 transcript fold change (24 hr): −1.76 fold change | TUBGCP3 transcript fold change (24 hr): −1.73 fold change | USP1 transcript fold change (24 hr): −1.38 fold change | UVRAG transcript fold change (24 hr): −1.43 fold change
